The subject of experiment [1] is monomeric human immunoglobulin IgG3. Description: BIAcore binding of PsFcγRIIa to immobilized monomeric human IgG3. Conditions: two site binding fit, 22° C., HBS pH 7.4. How it is done:
(§1) Analysis of the interaction between PsFcγRIIa and monomeric immunoglobulin was performed using a BIAcorea 2000 biosensor (available from Pharmacia Biotech, Uppsala, Sweden) at about 22° C. in Hepes buffered saline (HBS; 10 mM Hepes [N-2-hydroxyethylpiperazine-N′-2-ethanesulfonic acid, available from Commonwealth Serum Laboratories, Parkville, Australia], pH 7.4, 150 mM NaCl, 3.4 mM EDTA and 0.005% Surfactant, available from Pharmacia). About 4000 to about 6000 response units (RU) of monomeric human immunoglobulin subclasses IgG1, IgG2, IgG3, and IgE (50 μg/ml of each) were covalently coupled to separate carboxymethylated dextran surface of each CM5 sensor-chips (available from BIAcore, Uppsala, Sweden) using a amine coupling kit (available from BIAcore), according to manufacturer's methods. A series of PsFcγRIIa concentrations (about 0.001 to about 1 mg/ml protein) was injected over each sensor-chip surface for about 1 minute at about 20 μl/min followed by about 3 minute dissociation phase. Following administration of the protein, the immunoglobulin surface was regenerated on each chip using a buffer containing 50 mM diethylamine pH 11.5, and 1 M NaCl. […]

In experiment [2] the test system is monomeric human immunoglobulin IgG1. Briefly: BIAcore binding of PsFcγRIIa to immobilized monomeric human IgG1. Conditions: 22° C., HBS pH 7.4. How it is done:
as §1
In general terms: Surface plasmon resonance follows binding to a sensor surface in real time, without labels.

Chain of monomeric human immunoglobulin IgG3 (P01860 99-377 isoform P01860-1 limits assumed): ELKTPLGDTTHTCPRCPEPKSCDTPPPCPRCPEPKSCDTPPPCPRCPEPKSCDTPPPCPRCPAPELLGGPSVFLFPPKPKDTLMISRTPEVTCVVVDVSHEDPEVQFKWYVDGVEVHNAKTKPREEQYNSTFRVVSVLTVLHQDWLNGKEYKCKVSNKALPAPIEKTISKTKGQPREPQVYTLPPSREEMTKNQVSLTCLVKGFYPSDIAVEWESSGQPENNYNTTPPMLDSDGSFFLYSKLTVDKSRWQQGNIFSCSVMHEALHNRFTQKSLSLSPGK
Chain of monomeric human immunoglobulin IgG1 (P01857 99-223 limits assumed): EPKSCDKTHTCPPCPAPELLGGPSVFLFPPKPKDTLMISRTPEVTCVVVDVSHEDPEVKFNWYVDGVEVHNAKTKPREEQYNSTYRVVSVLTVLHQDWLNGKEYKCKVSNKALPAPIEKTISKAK

As for “PsFcγRIIa: recombinant soluble human FcγRIIa protein from baculovirus-infected Sf-21 cells; two species, SEQ ID NO:3 and SEQ ID NO:12”, the “affinity for IgG3” value in experiment [1] (at 50% of the sites) is listed as “about 2.7×10^6 M^−1”; in experiment [1] (at the remaining 50% of the sites), “about 1.2×10^4 M^−1”. For the same substance, the figures for the “affinity of PsFcγRIIa for IgG1” value in experiment [2] (at about 90% of the ligand binding sites) and in experiment [2] (at the remaining 10% of sites) were “about 2.1×10^6 M^−1” and “about 2.3×10^4 M^−1”, respectively.

For the origin of these results see patent US6675105B2, “Structure-based identification of candidate compounds using three dimensional structures and models of Fc receptors” (Ilexus Pty Limited, priority 1998, dated 2004).
